Measured values published in US20040158066A1, “Novel pyridylmethylaminopyrimidines” (priority 2001, published 2004).
≈ marks a conversion by molar mass, not a printed value.

Assays:
[1] = test system: Helicobacter pylori; test: Inhibition of growth in vitro in liquid culture (NanoOrange fluorescence); assay type: cell-based; conditions: liquid culture BHI/6% FCS medium, 24 hours incubation at 37° C., microaerobic, 1% DMSO
Description: Determination of the Inhibition of Growth In Vitro in Liquid Culture
The principle of the technique is based on the detection of the multiplication of, for example, Helicobacter pylori in liquid culture using BHI/6% FCS medium. The method ensures linear fluorescence increase in the range from 3×10^6 to 3×10^8 cells.
The bacterial culture was distributed with an initial density of 1-3×10^6 microbes/ml in a 96-well MTP in […]. The test substances in a concentration of […] in a final concentration of 1% DMSO were added to these minicultures. These MTPs were then incubated under microaerobic conditions (Anaerokult, Merck) and with shaking at 37° C. for 24 hours. Following the 24-hour incubation, the minicultures were transferred to filter MTPs and washed twice with isotonic buffer (filtered off with suction, taken up, shaken) and finally were taken up in double-distilled water and shaken, and an aliquot was transferred to a new MTP. This aliquot was admixed with the fluorescent dye NanoOrange (Molecular Probes) in accordance with the manufacturer's instructions. Development of protein detection took place at 90° C. in a pressure-secured sandwich technique. After the plates had cooled, the fluorescence was measured on a plate reader at 549 nm. […] This calculation was made using origin, sigmoidal curve adaptation by means of the ‘logistic’ algorithm.

[2] = test system: Helicobacter pylori; test: Agar dilution test (inhibition of growth in vitro on agar plates); assay type: cell-based; conditions: 96 h, Columbia agar (Oxoid), growth period of 4 days, read-out: approx. MIC50
Description: Agar Dilution Test (Determination of the Inhibition of Growth In Vitro on Agar Plates)
The compounds of the formula I were investigated for their activity against Helicobacter pylori in accordance with the methodology described by Tomoyuki Iwahi et al. (Antimicrobial Agents and Chemotherapy, 1991, 490-496) using Columbia agar (Oxoid) over a growth period of 4 days.

[3] = test system: Helicobacter pylori; test: Helicobacter pylori eradication rate in vivo (urease test on antrum tissue); conditions: infected gerbils; 50 mg/kg by tube, 3 × daily for 4 days; urease test four weeks after last treatment
Method: Determination of the Helicobacter pylori Eradication Rate In Vivo
Gerbils were infected on days 1, 3, and 5 with a suspension containing 10^8-10^9 Helicobacter pylori bacteria per animal. […] Beginning on day 36, the gerbils were treated on four successive days—three times daily at 07.30, 11.30, and 15.00 hours—with a placebo or the test substance, using a tube. Four weeks after the last treatment, the gerbils were sacrificed using CO2. A tissue sample of the antrum was introduced into the urease test solution and incubated at 37° C. for 24 hours. Changes in color of the solution from yellow to violet, which resulted from the increase in pH caused by the formation of NH3 from the urease, were detected. The eradication rate was calculated as the percentage of animals whose stomach tissue sample gave a negative urease test.
Conditions Under which the Animals were Kept:
Groups of 5-10 gerbils per cage (type IV Macrolon cage) were kept at an ambient temperature of 23±2° C. and a relative humidity of 50±10%. They were fed ad libitum with NAFAG feed No. 9439 for rats and mice (NAFAG AG, CH-2900, Gossau, Switzerland) and had free access to mains water during the experiment.
The substances administered are referenced in table C below using numbers which correspond to the numbers of the compounds in the examples.

Structure (SMILES)	melting point [°C]	IC50 [1] [nM]	MIC50 [2] [µg/mL]	Eradication rate [3] [%]
Cc1nc(C)c(Cl)c(NCc2ccc(Oc3ccc4ncc([N+](=O)[O-])n4n3)cn2)n1.O=S(=O)(O)O	233 to 234	–	–	–
COc1c(Oc2ccc3ncc([N+](=O)[O-])n3n2)cnc(CNc2nc(C)nc(C)c2Cl)c1C [Compound 1, (5-Chloro-2,6-dimethylpyrimidin-4-yl)[4-methoxy-3-methyl-5-(3-nitroimidazo[1,2-b]pyridazin-6-yloxy)pyridin-2-ylmethyl]amine]	229.5 to 231.5	12	~0.1 (≈ 0.212 µM)	–
Cc1nc(C)c(Cl)c(NCc2ccc(Oc3ccc4ncc([N+](=O)[O-])n4n3)cn2)n1.Cl.Cl	280 to 281	–	–	–
COc1c(OCCn2c([N+](=O)[O-])cnc2C)cnc(CNc2nc(C)nc(C)c2Cl)c1C [Compound 2, (5-Chloro-2,6-dimethylpyrimidin-4-yl){4-methoxy-3-methyl-5-[2-(2-methyl-5-nitroimidazol-1-yl)ethoxy]pyridin-2-ylmethyl}amine]	182.5 to 184	64	~0.1 (≈ 0.216 µM)	–
Cc1nc(C)c(Cl)c(NCc2ccc(Oc3ccc4ncc([N+](=O)[O-])n4n3)cn2)n1 [Compound 3, (5-Chloro-2,6dimethylpyrimidin-4-yl){5-(3-nitroimidazo[1,2-b]pyridazin-6-yloxy)pyridin-2-ylmethyl}amine]	194 to 198	35	~0.1 (≈ 0.234 µM)	100

Continued, in another order:

melting point [°C]	IC50 [1] [nM]	MIC50 [2] [µg/mL]	Structure (SMILES)	Eradication rate [3] [%]
183 to 184	–	–	Cc1nc(C)c(Cl)c(CNCc2ccc(Oc3ccc4ncc([N+](=O)[O-])n4n3)cn2)n1 [Compound 9, (5-Chloro-2,6-dimethylpyrimidin-4-yl)methyl-[5-(3-nitroimidazo[1,2-b]pyridazin-6-yloxy)pyridin-2-ylmethyl]amine]	–
206 to 208	–	–	Cc1nc(C)c(Cl)c(NCc2ccc(OCCn3c([N+](=O)[O-])cnc3C)c(Cl)n2)n1 [Compound 8, (5-Chloro-2,6-dimethylpyrimidin-4-yl)-{6-chloro-5-[2-(2-methyl-5-nitroimidazol-1-yl)ethoxy]pyridin-2-ylmethyl}amine]	–
184 to 186	–	–	Cc1nc(C)c(Cl)c(NCc2ccc(Oc3ccc4ncc([N+](=O)[O-])n4n3)c(Cl)n2)n1 [Compound 7, (5-Chloro-2,6-dimethylpyrimidin-4-yl)-[6-chloro-5-(3-nitroimidazo[1,2-b]pyridazin-6-yloxy)pyridin-2-ylmethyl]amine]	–
181.5 to 183.5	40	~0.1 (≈ 0.239 µM)	Cc1nc(C)c(Cl)c(NCc2ccc(OCCn3c([N+](=O)[O-])cnc3C)cn2)n1 [Compound 4, (5-Chloro-2,6-dimethylpyrimidin-4-yl){5-[2-(2-methyl-5-nitroimidazol-1-yl)ethoxy]pyridine-2-ylmethyl}amine]	–
